According to patent US20060154255A1, “Blood and tissue sample assessment of mitochondrial function and biochemistry as a tool for selection for feed efficiency and other production parameters” (priority 2002, published 2006):

Tests used:
[1] = system: breast muscle mitochondria; test: H2O2 production (electron leak) in breast muscle mitochondria with respiratory chain inhibitors; type: biochemical, broilers
[2] = system: leg muscle mitochondria; test: H2O2 production (electron leak) in leg muscle mitochondria with respiratory chain inhibitors; type: biochemical, broilers; details: low FE leg muscle mitochondria; versus no inhibitor (NI); rotenone 10 μM; P<0.07
[3] = low FE breast muscle mitochondria, versus no inhibitor (NI), rotenone 10 μM, antimycin A 13 μM
[4] = breast muscle mitochondria, inhibition at Complex II or Q cycle of Complex III, malonate 7 μM, TTFA 8 μM, myxothiazol 13 μM

| Compound | H2O2 production [1, 3] | H2O2 production [2] | H2O2 production [1, 4] |
| --- | --- | --- | --- |
| C=C(C)[C@H]1Cc2c(ccc3c2O[C@@H]2COc4cc(OC)c(OC)cc4[C@@H]2C3=O)O1 [rotenone] | raised H2O2 production | an elevation |  |
| antimycin A | raised H2O2 production |  |  |
| CO/C(=C/C(N)=O)[C@H](C)[C@H](/C=C/c1csc(-c2csc([C@@H](C)/C=C/C=C/C(C)C)n2)n1)OC [myxothiazol] |  |  | No differences were observed |
| O=C(O)CC(=O)O [malonate] |  |  | No differences were observed |
| O=C(CC(=O)C(F)(F)F)c1cccs1 [TTFA, 4,4,4-trifluoro-1-[2-thienyl]-1,3-butanedione] |  |  | No differences were observed |
